The chains are these.
T1: ferroportin (Homo sapiens, UniProt Q9NP59)
T1 sequence (Q9NP59 1-571): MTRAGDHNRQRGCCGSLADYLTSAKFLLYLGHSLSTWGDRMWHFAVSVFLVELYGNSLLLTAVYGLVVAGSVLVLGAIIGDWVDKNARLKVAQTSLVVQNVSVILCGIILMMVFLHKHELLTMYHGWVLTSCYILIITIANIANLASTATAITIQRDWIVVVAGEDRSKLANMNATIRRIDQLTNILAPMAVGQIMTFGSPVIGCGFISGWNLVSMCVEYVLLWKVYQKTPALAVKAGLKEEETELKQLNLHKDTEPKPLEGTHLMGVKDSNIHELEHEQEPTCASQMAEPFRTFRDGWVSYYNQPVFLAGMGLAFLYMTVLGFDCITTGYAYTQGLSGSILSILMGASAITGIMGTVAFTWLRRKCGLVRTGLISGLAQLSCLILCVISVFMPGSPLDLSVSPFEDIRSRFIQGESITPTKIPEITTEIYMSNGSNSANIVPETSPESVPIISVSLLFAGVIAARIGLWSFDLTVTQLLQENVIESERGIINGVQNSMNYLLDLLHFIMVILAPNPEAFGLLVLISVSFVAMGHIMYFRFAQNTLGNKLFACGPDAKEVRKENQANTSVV

T2: ferroportin endogenously expressed on T47D cells (HTB 133, ATCC) (human, UniProt Q9NP59 1-571)
T2 sequence (looked up): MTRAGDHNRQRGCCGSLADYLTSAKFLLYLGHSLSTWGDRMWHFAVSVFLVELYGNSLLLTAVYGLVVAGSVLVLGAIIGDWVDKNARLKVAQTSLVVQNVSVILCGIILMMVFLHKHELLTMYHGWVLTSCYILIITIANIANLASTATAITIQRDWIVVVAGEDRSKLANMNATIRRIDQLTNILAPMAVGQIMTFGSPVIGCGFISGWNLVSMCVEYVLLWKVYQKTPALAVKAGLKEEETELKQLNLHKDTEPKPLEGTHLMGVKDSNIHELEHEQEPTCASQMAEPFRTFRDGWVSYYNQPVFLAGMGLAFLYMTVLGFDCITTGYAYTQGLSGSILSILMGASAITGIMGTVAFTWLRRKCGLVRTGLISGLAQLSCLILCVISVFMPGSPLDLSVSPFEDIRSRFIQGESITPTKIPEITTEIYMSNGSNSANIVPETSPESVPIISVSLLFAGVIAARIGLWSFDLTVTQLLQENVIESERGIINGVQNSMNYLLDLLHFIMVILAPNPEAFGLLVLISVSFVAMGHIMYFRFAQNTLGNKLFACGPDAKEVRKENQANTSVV

B1: Isovaleric Acid-K-T-H-[Dpa]-P-A-I-E-[Lys(Ahx_Palm)]-NH2 (peptide)
peptide: Isovaleryl-KTH[Dip]PAIEK([Ahx-Palmitoyl])-NH2
modifications: lactam 1-8
SMILES: CCCCCCCCCCCCCCCC(=O)NCCCCCC(=O)NCCCC[C@H](NC(=O)[C@@H]1CCC(=O)NCCCC[C@H](NC(=O)CC(C)C)C(=O)N[C@@H]([C@@H](C)O)C(=O)N[C@@H](Cc2c[nH]cn2)C(=O)N[C@@H](C(c2ccccc2)c2ccccc2)C(=O)N2CCC[C@H]2C(=O)N[C@@H](C)C(=O)N[C@@H]([C@@H](C)CC)C(=O)N1)C(N)=O

From patent publication US20240066131A1 (Protagonist Therapeutics, Inc., priority 2020, published 2024) come the findings set out here.

Starred links: 1 amine or outer side, 2 acyl side, 3 side chain; linkers in the order of their positions; H or OH if unused. Positions of bridges follow the written chain, without caps; N, C: chain ends. Non-standard residues stand in square brackets, D forms with d. Residues, ends and D or L forms follow the SMILES beside them. Groups on a side chain read outwards from the residue. *: point of attachment. Ala(1H-tetrazol-5-yl) = N[C@@H](Cc1nnn[nH]1)C(=O)O; X14 = O=C(CN(CCC(c1ccccc1)c1ccccc1)[*:1])[*:2]; X15 = O=C([C@H](CCc1nnn[nH]1)N[*:1])[*:2]; Dip = N[C@H](C(=O)O)C(c1ccccc1)c1ccccc1; His(τ-Me) = Cn1cnc(C[C@H](N)C(=O)O)c1; Palmitoyl = CCCCCCCCCCCCCCCC(=O)*; Myristoyl = CCCCCCCCCCCCCC(=O)*; β3hF = N[C@H](CC(=O)O)Cc1ccccc1; hLeu = CC(C)CC[C@H](N)C(=O)O; Isovaleryl = CC(C)CC(=O)*; Ahx = NCCCCCC(=O)O

The target in one assay is T1, ferroportin. The experiment in a line: FPN activity assay: internalization/degradation of ferroportin-GFP in stably transfected HEK293 cells (loss of GFP fluorescence). It counts as cell-based. To be noted: Table 6A; read-out: FPN EC50. How it is done:
Following internalization, the ferroporin protein is degraded.
A retro inverse peptide is a peptide with a reversed sequence in all D amino acids. An example is that Hy-Glu-Thr-His-NH2 becomes Hy-DHis-DThr-DGlu-NH2. The EC50 of these reference compounds for ferroportin internalization/degradation was determined according to the FPN activity assay described above. These peptides served as control standards.
Regarding `CC[C@H](C)[C@H](NC(=O)[C@H](C)NC(=O)[C@@H]1CCCN1C(=O)[C@@H](NC(=O)[C@H](Cc1cn(C)cn1)NC(=O)[C@@H](NC(=O)[C@H](Cc1nn[nH]n1)NC(=O)CC(C)C)[C@@H](C)O)C(c1ccccc1)c1ccccc1)C(=O)N[C@@H](CCCCNC(C)=O)C(=O)N[C@H](CC(=O)N[C@H](CCCCN)C(=O)N[C@@H](C)C(N)=O)Cc1ccccc1` [compound 39] (Isovaleryl-[Ala(1H-tetrazol-5-yl)]T[His(τ-Me)][Dip]PAIK(Ac)[β3hF][dK]A-NH2), the DC50 was above 3000 nM.

Regarding `CC[C@H](C)[C@H](NC(=O)[C@H](C)NC(=O)[C@@H]1CCCN1C(=O)[C@@H](NC(=O)[C@H](Cc1c[nH]cn1)NC(=O)[C@@H](NC(=O)[C@H](CCC(=O)O)NC(=O)CC(C)C)[C@@H](C)O)C(c1ccccc1)c1ccccc1)C(=O)N[C@@H](CCCCNC(C)=O)C(N)=O` [compound 12] (Isovaleryl-ETH[Dip]PAIK(Ac)-NH2), the DC50 came out at 1040 nM.

As to `CCCCCCCCCCCCCCCC(=O)NCCCCCC(=O)NCCCC[C@H](NC(=O)[C@@H](NC(=O)[C@H](CCC(C)C)NC(=O)[C@@H]1CCCN1C(=O)[C@@H](NC(=O)[C@H](Cc1c[nH]cn1)NC(=O)[C@@H](NC(=O)[C@H](CCC(=O)O)NC(=O)CC(C)C)[C@@H](C)O)C(c1ccccc1)c1ccccc1)[C@@H](C)CC)C(=O)N[C@H](CC(N)=O)Cc1ccccc1` [compound 121] (Isovaleryl-ETH[Dip]P[hLeu]IK([Ahx-Palmitoyl])[β3hF]-NH2), the DC50 is 150 nM.

`CCCCCCCCCCCCCCCC(=O)NCCCCCC(=O)NCCCC[C@H](NC(=O)[C@@H](NC(=O)[C@H](C)NC(=O)[C@@H]1CCCN1C(=O)[C@@H](NC(=O)[C@H](Cc1cn(C)cn1)NC(=O)[C@@H](NC(=O)[C@H](CC(C)C)NC(=O)CC(C)C)[C@@H](C)O)C(c1ccccc1)c1ccccc1)[C@@H](C)CC)C(=O)N[C@H](CC(N)=O)Cc1ccccc1` [compound 45] (Isovaleryl-LT[His(τ-Me)][Dip]PAIK([Ahx-Palmitoyl])[β3hF]-NH2): the DC50 is above 3000 nM.

For `CC[C@H](C)[C@H](NC(=O)[C@H](C)NC(=O)[C@@H]1CCCN1C(=O)[C@@H](NC(=O)[C@H](Cc1c[nH]cn1)NC(=O)[C@@H](NC(=O)[C@H](CCc1nnn[nH]1)NC(=O)CC(C)C)[C@@H](C)O)C(c1ccccc1)c1ccccc1)C(=O)N[C@@H](CCCCNC(C)=O)C(=O)N[C@H](CC(=O)N[C@H](CCCCN)C(=O)N[C@@H](C)C(N)=O)Cc1ccccc1` [compound 38] (Isovaleryl-[X15]TH[Dip]PAIK(Ac)[β3hF][dK]A-NH2), the DC50 worked out at 117 nM.

The assay is the same for the next values; noted with them: Table 6B; read-out: FPN IC50.
For `CCCCCCCCCCCCCCCC(=O)NCCCCCC(=O)NCCCC[C@H](NC(=O)C[C@H](Cc1ccccc1)NC(=O)[C@@H](CCCCN)NC(=O)[C@@H](NC(=O)[C@H](C)NC(=O)[C@@H]1CCCN1C(=O)[C@H](C)NC(=O)[C@H](Cc1c[nH]cn1)NC(=O)[C@@H](NC(=O)[C@H](CCC(=O)O)NC(=O)CC(C)C)[C@@H](C)O)[C@@H](C)CC)C(=O)N[C@H](CCCCN)C(=O)N[C@@H](C)C(N)=O` [compound 151] (Isovaleryl-ETHAPAI[dK][β3hF]K([Ahx-Palmitoyl])[dK]A-NH2), the DC50 was above 3000 nM.

The assay is the same for the next values; noted with them: ferroportin-GFP HEK293 cells, compound incubated at least 18 hours; read-out: FPN IC50.
In the case of `CCCCCCCCCCCCCC(=O)NCCCCCC(=O)NCCCC[C@H](NC(=O)[C@@H](NC(=O)[C@H](C)NC(=O)[C@@H]1CCCN1C(=O)[C@H](Cc1ccccc1)NC(=O)[C@H](Cc1c[nH]cn1)NC(=O)[C@@H](NC(=O)[C@H](CCC(=O)O)NC(=O)CC(C)C)[C@@H](C)O)[C@@H](C)CC)C(=O)N[C@@H](Cc1ccccc1)C(=O)N[C@@H](CCC(=O)O)C(=O)N1CCC[C@H]1C(=O)N[C@@H](CCCNC(=N)N)C(=O)N[C@@H](CO)C(=O)N[C@@H](CCCCN)C(=O)NCC(=O)N[C@@H](C)C(=O)N[C@H](CCCCN)C(N)=O` [compound 245] (Isovaleryl-ETHFPAIK([Ahx-Myristoyl])FEPRSKGA[dK]-NH2), the DC50 is 1160 nM.

For `CC(C)CC(=O)N[C@@H](CCC(=O)O)C(=O)N[C@H](C(=O)N[C@@H](Cc1c[nH]cn1)C(=O)N[C@H](C(=O)N1CCC[C@H]1C(=O)N[C@H](CCCCNC(=O)COCCOCCNC(=O)COCCOCCNC(=O)CCCCCNC(=O)CCCCCCCCCCCCCCCCC(=O)O)C(=O)N[C@H](CC(N)=O)Cc1ccccc1)C(c1ccccc1)c1ccccc1)[C@@H](C)O` [compound 214], the DC50 is 86.8 nM.

The assay is the same for the next values; noted with them: read-out: FPN EC50; Table 6A.
As to `CCCCCCCCCCCCCCCC(=O)NCCCCCC(=O)NCCCC[C@H](NC(=O)[C@@H](NC(=O)[C@H](C)NC(=O)[C@@H]1CCCN1C(=O)CN(CCC(c1ccccc1)c1ccccc1)C(=O)[C@H](Cc1c[nH]cn1)NC(=O)[C@@H](NC(=O)[C@H](CCC(=O)O)NC(=O)CC(C)C)[C@@H](C)O)[C@@H](C)CC)C(=O)N[C@H](CC(N)=O)Cc1ccccc1` [compound 89] (Isovaleryl-ETH[X14]PAIK([Ahx-Palmitoyl])[β3hF]-NH2), the DC50 is above 3000 nM.

In the next assay the target is T2, ferroportin endogenously expressed on …. In words: cell-based or functional assay.
Conditions: not given
For the molecule XETHXPXX (N-term Butyric_Acid; Dpa4; Lys(Ahx_Palm)6; C-term N_Butyl_Phe) [Butyric_Acid-E-T-H-[Dpa]-P-[Lys(Ahx_Palm)]-N_Butyl_Phe], the “T47D MSA IC50” value is 10.1 nM.

Take B1: the “T47D MSA IC50” value worked out at 31.2 nM.
